Laboratory results published in article PMC5650142, “GPR40 partial agonists and AgoPAMs: Differentiating effects on glucose and hormonal secretions in the rodent” (PLoS ONE, 2017).
Several values for one entry are separate records, joined by “and”; a condition that tells them apart may be missing. Identical values can stand only once. Like-named read-outs stand apart in the source and are kept apart here.

Tests used:
GK rats = test: GK rat acute efficacy (glucose, insulin, glucagon after single dose); type: in vivo; conditions: 10 mpk
Outline: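 Food removed ~1 hr after lights on; rats grouped by ambient glucose, each compound given at its maximal effective dose. Glucose, insulin and glucagon measured at 1, 2, 4 and 24 hrs post dose; plasma in K2EDTA with DPP4 and protease inhibitors, insulin by EIA, glucagon by in-house MSD sandwich immunoassay.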

[1] = system: pancreatic islets from wild type and GPR40−/− mice; test: Isolated pancreatic islets static GDIS assay (insulin, glucagon secretion); type: cell-based, mouse; parameters: Islet insulin / Islet insulin, mean: unit not given here; conditions: for glucagon secretion from islets: ex vivo; for Islet Glucagon / Islet insulin: individual replicates; for Islet Glucagon, mean / Islet insulin, mean: mean of replicates
Description: Pancreatic islets of Langerhans were isolated from wild type and GPR40^−/− mice (littermates) by collagenase digestion and discontinuous Ficoll gradient separation. […] Insulin secretion was determined by a 1-h static incubation in Krebs-Ringer bicarbonate (KRB) buffer in a 96-well format as previously described. […] The buffer was removed from the wells at the end of the incubation and assayed for insulin levels using the Insulin ELISA kit (ALPCO, Salem, NH) and glucagon level using glucagon ELISA kit (ALPCO, Salem, NH).

human GPR40 = human GPR40 (Homo sapiens, UniProt O14842); test: GPR40 binding assay, AgoPAM tracer [3H]25 ([3H]AP9); parameters: expressed in transfected cells; host or cells: CHO / CHO-K1 cells, membrane preparation;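 as to % Bound Normalized to 100: 100% bound is tracer binding in DMSO-only wells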;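 as to %Bound: 100% bound is tracer binding in DMSO-only wells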
Description: Two small molecule tracers, the partial agonist [3H][…] and the AgoPAM [3H]25, are used to measure compound affinity at each site as described previously. Because of the allosteric coupling of the two sites and the nature of the assay, addition of a compound will either displace (binds to same site) or augment (binds to allosterically coupled site) radiotracer. Membranes expressing GPR40 were prepared from CHO cells stably expressing human GPR40. […] Sigma P8830) and were homogenized in 50 ml aliquots with a motor-driven glass Dounce homogenizer, 15 strokes at 1900 rpm on wet ice, repeating once. Homogenates were centrifuged at 2200 rpm for 10 min at 4°C. Supernatants were carefully removed and pooled. Homogenization and centrifugation were repeated until the debris pellet was translucent to maximize membrane recovery. Supernatants were then centrifuged at […] rpm for 20 min. at 4°C. […] Protein concentration was determined by Pierce BCA kit. […] The beads and membrane mixture is then vigorously mixed for 30 minutes at room temperature prior to addition to the assay. […] Next, 15 μl of the radioligand and 35 μl of the beads/membranes solution is added to each well. The assay plates are then sealed and incubated for 30 minutes at room temperature on an orbital shaker. The plates are allowed to settle for 16 hours and then counted on a TopCount scintillation counter (PE). […] Maximal % bound and IC50 are then determined for each test compound. 5 μg/well membrane together with 200 μg/well of PVT WGA SPA beads (GE #RPNG-0001) were suspended in a white 96 well plate with a final concentration of 50 μl/well in assay buffer (50 mM Tris, 10 mM MgCl2, and 2 mM EDTA). […] The plate is briefly mixed and incubated for 3-18 h at room temperature, before it is read on a MicroBeta plate counter (Perkin Elmer, MS, USA).

[2] = radioligand L-005306257, dose 0.318285 nM
[3] = radioligand L-005306257, dose 1.00578 nM
[4] = radioligand L-005306257, dose 3.17827 nM
[5] = radioligand L-005306257, dose 10.0433 nM
[6] = radioligand L-005306257, dose 31.7369 nM
[7] = radioligand L-005306257, dose 100.289 nM
[8] = radioligand L-005306257, dose 316.912 nM
[9] = radioligand L-005306257, dose 1001.44 nM
[10] = radioligand L-005306257, dose 3164.56 nM
[11] = radioligand L-005306257, dose 10000 nM

Chain of human GPR40 (O14842 whole entry): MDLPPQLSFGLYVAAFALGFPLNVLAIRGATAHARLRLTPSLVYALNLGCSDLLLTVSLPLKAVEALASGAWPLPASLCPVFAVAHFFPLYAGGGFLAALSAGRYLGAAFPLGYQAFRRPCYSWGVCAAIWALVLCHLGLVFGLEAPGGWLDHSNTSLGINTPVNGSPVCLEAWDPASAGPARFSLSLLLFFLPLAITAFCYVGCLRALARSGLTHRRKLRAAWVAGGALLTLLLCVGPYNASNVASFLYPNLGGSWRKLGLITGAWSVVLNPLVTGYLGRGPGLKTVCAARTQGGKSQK

- Binding Results, % in parentheses, [^3H]AP9 (human GPR40; WT human GPR40, maximal % (not defined)): (101%)
- IC50 (human GPR40; WT human GPR40, n = 2–13, read-out: Binding Results [IC50, nM], [^3H]AP9): 5.9 ± 5.2 nM
- binding of [^3H]25 (human GPR40; human GPR40 membranes, competition binding): displace
- %Act, HUMAN GPR40, Binding Data (human GPR40; individual determinations, AgoPAM tracer (per Table 2)): 102% and 101%
- IC50 (human GPR40; individual determinations, AgoPAM tracer (per Table 2), read-out: IC50 (nM), HUMAN GPR40, Binding Data): 2.18 nM and 9.53 nM
- % Bound Normalized to 100 (human GPR40; [2]): 96.23%
- %Bound (human GPR40; [2]): 90.33%
- inhibition at 0.000318285 µM (human GPR40; [2]): 6.84%
- % Bound Normalized to 100 (human GPR40; [3]): 76.57%
- %Bound (human GPR40; [3]): 70.67%
- inhibition at 0.00100578 µM (human GPR40; [3]): 10.2%
- % Bound Normalized to 100 (human GPR40; [4]): 49.04%
- %Bound (human GPR40; [4]): 43.15%
- inhibition at 0.00317827 µM (human GPR40; [4]): 27.8%
- % Bound Normalized to 100 (human GPR40; [5]): 29.38%
- %Bound (human GPR40; [5]): 23.49%
- inhibition at 0.0100433 µM (human GPR40; [5]): 52.8%
- % Bound Normalized to 100 (human GPR40; [6]): 11.81%
- %Bound (human GPR40; [6]): 5.92%
- inhibition at 0.0317369 µM (human GPR40; [6]): 84.3%
- % Bound Normalized to 100 (human GPR40; [7]): 9.60%
- %Bound (human GPR40; [7]): 3.71%
- inhibition at 0.100289 µM (human GPR40; [7]): 92.8%
- % Bound Normalized to 100 (human GPR40; [8]): 4.07%
- %Bound (human GPR40; [8]): -1.82%
- inhibition at 0.316912 µM (human GPR40; [8]): 100%
- % Bound Normalized to 100 (human GPR40; [9]): 2.48%
- %Bound (human GPR40; [9]): -3.42%
- inhibition at 1.00144 µM (human GPR40; [9]): 102%
- % Bound Normalized to 100 (human GPR40; [10]): 6.29%
- %Bound (human GPR40; [10]): 0.39%
- inhibition at 3.16456 µM (human GPR40; [10]): 99.9%
- % Bound Normalized to 100 (human GPR40; [11]): 6.04%
- %Bound (human GPR40; [11]): 0.15%
- inhibition at 10 µM (human GPR40; [11]): 101%
Compound: C[C@H](C(=O)O)[C@H](c1ccc2c(c1)O[C@H](C1CN(Cc3cc(C(F)(F)F)ccc3C(F)(F)F)C1)CC2)C1CC1 [AP3]
- Plasma Glucagon Over Time (Fig 2C) (GK rats; time 0, individual animals): 19.5235 pg/mL and 95.1724 pg/mL and 78.4069 pg/mL and 68.928 pg/mL and 101.768 pg/mL and 68.1132 pg/mL and 64.8322 pg/mL and 90.2934 pg/mL
- Plasma Insulin Over Time (Fig 2B) (GK rats; time 0, individual animals): 1.335 ng/mL and 3.288 ng/mL and 2.57 ng/mL and 2.616 ng/mL and 1.578 ng/mL and 2.696 ng/mL and 1.845 ng/mL and 1.5169 ng/mL
- Plasma Glucagon Over Time (Fig 2C) (GK rats; time 1, individual animals): 91.082 pg/mL and 337.393 pg/mL and 327.979 pg/mL and 373.532 pg/mL and 338.805 pg/mL and 110.666 pg/mL and 312.795 pg/mL and 175.651 pg/mL
- Plasma Insulin Over Time (Fig 2B) (GK rats; time 1, individual animals): 7.035 ng/mL and 11.786 ng/mL and 10.5354 ng/mL and 9.1461 ng/mL and 4.564 ng/mL and 7.402 ng/mL and 7.0553 ng/mL and 5.184 ng/mL
- Plasma Glucagon Over Time (Fig 2C) (GK rats; time 2, individual animals): 309.053 pg/mL and 291.695 pg/mL and 285.862 pg/mL and 322.143 pg/mL and 116.312 pg/mL and 40.1476 pg/mL and 259.365 pg/mL and 215.877 pg/mL
- Plasma Insulin Over Time (Fig 2B) (GK rats; time 2, individual animals): 3.782 ng/mL and 3.3115 ng/mL and 3.493 ng/mL and 3.854 ng/mL and 1.215 ng/mL and 0.8625 ng/mL and 2.2798 ng/mL and 2.163 ng/mL
- Plasma Glucagon Over Time (Fig 2C) (GK rats; time 4, individual animals): 120.787 pg/mL and 261.082 pg/mL and 116.805 pg/mL and 218.976 pg/mL and 231.061 pg/mL and 206.193 pg/mL and 151.031 pg/mL and 315.618 pg/mL
- Plasma Insulin Over Time (Fig 2B) (GK rats; time 4, individual animals): 3.033 ng/mL and 3.537 ng/mL and 3.038 ng/mL and 2.421 ng/mL and 1.582 ng/mL and 1.483 ng/mL and 2.06 ng/mL and 1.86 ng/mL
- Plasma Glucagon Over Time (Fig 2C) (GK rats; time 24, individual animals): 114.227 pg/mL and 80.8254 pg/mL and 201.451 pg/mL and 177.87 pg/mL and 103.778 pg/mL and 114.567 pg/mL and 171.755 pg/mL and 119.088 pg/mL
- Plasma Insulin Over Time (Fig 2B) (GK rats; time 24, individual animals): 1.556 ng/mL and 1.426 ng/mL and 1.797 ng/mL and 1.415 ng/mL and 0.6908 ng/mL and 1.576 ng/mL and 1.455 ng/mL and 1.848 ng/mL
- glucagon secretion from islets ([1]; GPR40-/- mouse islets): abolished
- Islet Glucagon ([1]; KO mouse islets, G2, 1uM): 25.089 pg/ml/ islet and 11.858 pg/ml/ islet and 9.721 pg/ml/ islet and 3.205 pg/ml/ islet and 12.4 pg/ml/ islet and 14.931 pg/ml/ islet and 18.163 pg/ml/ islet and 18.456 pg/ml/ islet and 21.346 pg/ml/ islet and 15.13 pg/ml/ islet
- Islet insulin ([1]; KO mouse islets, G2, 1uM): 0.293 and 0.272 and 0.213 and 0.106 and 0.37 and 0.44 and 0.27 and 0.128 and 1.077 and 0.675
- Islet Glucagon, mean ([1]; KO mouse islets, G2, 1uM): 15.0299 pg/ml/ islet
- Islet insulin, mean ([1]; KO mouse islets, G2, 1uM): 0.3844
- Islet Glucagon ([1]; KO mouse islets, G16, 1uM): 4.043 pg/ml/ islet and 5.474 pg/ml/ islet and 8.717 pg/ml/ islet and 11.984 pg/ml/ islet and 16.06 pg/ml/ islet and 18.271 pg/ml/ islet and 3.382 pg/ml/ islet and 7.691 pg/ml/ islet and 7.902 pg/ml/ islet and 2.338 pg/ml/ islet
- Islet insulin ([1]; KO mouse islets, G16, 1uM): 5.28 and 3.491 and 4.033 and 2.378 and 3.966 and 1.757 and 3.131 and 3.522 and 3.781 and 3.035
- Islet Glucagon, mean ([1]; KO mouse islets, G16, 1uM): 8.5862 pg/ml/ islet
- Islet insulin, mean ([1]; KO mouse islets, G16, 1uM): 3.4374
- Islet Glucagon ([1]; WT mouse islets, G2, 1uM): 38.183 pg/ml/ islet and 99.219 pg/ml/ islet and 47.629 pg/ml/ islet and 35.059 pg/ml/ islet and 41.718 pg/ml/ islet and 44.978 pg/ml/ islet and 113.083 pg/ml/ islet and 70.443 pg/ml/ islet and 44.123 pg/ml/ islet and 60.974 pg/ml/ islet
- Islet insulin ([1]; WT mouse islets, G2, 1uM, listed as L-005427846): 1.34 and 1.9735 and 0.61 and 0.65 and 0.79 and 1.22 and 0.9145 and 1.416 and 1.5465 and 1.2555
- Islet Glucagon, mean ([1]; WT mouse islets, G2, 1uM): 59.5409 pg/ml/ islet
- Islet insulin, mean ([1]; WT mouse islets, G2, 1uM): 1.1716
- Islet Glucagon ([1]; WT mouse islets, G16, 1uM): 19.839 pg/ml/ islet and 16.487 pg/ml/ islet and 37.465 pg/ml/ islet and 8.951 pg/ml/ islet and 23.354 pg/ml/ islet and 22.21 pg/ml/ islet and 33.167 pg/ml/ islet and 31.559 pg/ml/ islet and 48.792 pg/ml/ islet
- Islet insulin ([1]; WT mouse islets, G16, 1uM, listed as L-005427846): 11.936 and 11.639 and 13.085 and 12.097 and 12.133 and 11.613 and 12.28 and 12.692 and 11.465 and 12.253
- Islet Glucagon, mean ([1]; WT mouse islets, G16, 1uM): 26.8693 pg/ml/ islet
- Islet insulin, mean ([1]; WT mouse islets, G16, 1uM): 12.1193
- glucagon secretion from islets ([1]; WT mouse islets): significantly elevated
